How the values were obtained:
[1] = 318.15 K; 101.33 kPa; Liquid; Vibrating tube method
[2] = refractive index (Na D-line) (dimensionless); conditions: 318.15 K; 101.33 kPa; Liquid; Standard Abbe refractometry
[3] = excess molar enthalpy (molar enthalpy of mixing); xn = mol fraction of the nth substance listed; conditions: 318.15 K, 101.3 kPa, Liquid
[4] = xn = mol fraction of the nth substance listed; conditions: 318.15 K, 101.3 kPa, Liquid

CCCOC(C)=O [propyl ethanoate]
Conditions | mass density [kg/m3] | refractive index
[1] | 859.78 | –
[2] | – | 1.3721

CCCCCCCCCCCCC [tridecane]
Conditions | mass density [kg/m3] | refractive index
[1] | 738.34 | –
[2] | – | 1.4155

CCOC(C)=O [ethyl acetate]
Conditions | mass density [kg/m3] | refractive index
[1] | 869.54 | –
[2] | – | 1.3597

CCCCCCCCCCCCCCCCC [heptadecane]
Conditions | mass density [kg/m3] | refractive index
[1] | 760.8 | –
[2] | – | 1.4268

CCCCOC(C)=O [butyl ethanoate]
Conditions | mass density [kg/m3] | refractive index
[1] | 855.39 | –
[2] | – | 1.3825

CCCCCOC(C)=O [pentyl ethanoate]
Conditions | mass density [kg/m3] | refractive index
[1] | 852.93 | –
[2] | – | 1.391

CCCCCCCCCCCCCCC [pentadecane]
Conditions | mass density [kg/m3] | refractive index
[1] | 750.9 | –
[2] | – | 1.4212

CCCCCCC [heptane]
Conditions | mass density [kg/m3] | refractive index
[1] | 662.04 | –
[2] | – | 1.3748

CCCCCCCCCCC [undecane]
Conditions | mass density [kg/m3] | refractive index
[1] | 721.76 | –
[2] | – | 1.4063

CCCCCCCCC [nonane]
Conditions | mass density [kg/m3] | refractive index
[1] | 698.06 | –
[2] | – | 1.3939

COC(C)=O [methyl ethanoate]
Conditions | mass density [kg/m3] | refractive index
[1] | 900.1 | –
[2] | – | 1.349

CCCCCCCCCCCCCCCCC [heptadecane] + CCCCOC(C)=O
Conditions | excess molar enthalpy [kcal/mol] | excess molar volume [m3/mol]
[3], x2 = 0.0954 | 0.11 | –
[3], x2 = 0.1878 | 0.201 | –
[3], x2 = 0.2686 | 0.269 | –
[3], x2 = 0.3397 | 0.318 | –
[3], x2 = 0.4009 | 0.349 | –
[3], x2 = 0.4599 | 0.371 | –
[3], x2 = 0.5118 | 0.382 | –
[3], x2 = 0.5532 | 0.382 | –
[3], x2 = 0.5903 | 0.381 | –
[3], x2 = 0.5962 | 0.381 | –
[3], x2 = 0.6293 | 0.369 | –
[3], x2 = 0.6674 | 0.352 | –
[3], x2 = 0.7073 | 0.332 | –
[3], x2 = 0.7491 | 0.304 | –
[3], x2 = 0.7926 | 0.271 | –
[3], x2 = 0.8356 | 0.232 | –
[3], x2 = 0.8781 | 0.187 | –
[3], x2 = 0.9208 | 0.133 | –
[3], x2 = 0.9615 | 0.0716 | –
[4], x2 = 0.0632 | – | 1.97e-07
[4], x2 = 0.104 | – | 3.47e-07
[4], x2 = 0.1206 | – | 3.85e-07
[4], x2 = 0.1949 | – | 5.9e-07
[4], x2 = 0.2755 | – | 7.8e-07
[4], x2 = 0.3444 | – | 9e-07
[4], x2 = 0.4115 | – | 9.79e-07
[4], x2 = 0.4696 | – | 1.048e-06
[4], x2 = 0.515 | – | 1.082e-06
[4], x2 = 0.5713 | – | 1.082e-06
[4], x2 = 0.6623 | – | 1.03e-06
[4], x2 = 0.7646 | – | 9.06e-07
[4], x2 = 0.842 | – | 6.95e-07
[4], x2 = 0.8976 | – | 5.2e-07
[4], x2 = 0.9384 | – | 3.47e-07
[4], x2 = 0.9717 | – | 1.79e-07

CCCCCCCCCCCCCCCCC [heptadecane] + CCOC(C)=O
Conditions | excess molar enthalpy [kcal/mol] | excess molar volume [m3/mol]
[3], x2 = 0.0911 | 0.136 | –
[3], x2 = 0.1754 | 0.245 | –
[3], x2 = 0.2543 | 0.345 | –
[3], x2 = 0.3274 | 0.415 | –
[3], x2 = 0.394 | 0.467 | –
[3], x2 = 0.4566 | 0.506 | –
[3], x2 = 0.512 | 0.525 | –
[3], x2 = 0.558 | 0.534 | –
[3], x2 = 0.6007 | 0.531 | –
[3], x2 = 0.634 | 0.523 | –
[3], x2 = 0.6486 | 0.519 | –
[3], x2 = 0.6818 | 0.504 | –
[3], x2 = 0.7172 | 0.485 | –
[3], x2 = 0.7538 | 0.463 | –
[3], x2 = 0.7913 | 0.426 | –
[3], x2 = 0.8271 | 0.392 | –
[3], x2 = 0.8653 | 0.342 | –
[3], x2 = 0.9018 | 0.287 | –
[3], x2 = 0.9382 | 0.22 | –
[3], x2 = 0.9719 | 0.121 | –
[4], x2 = 0.1461 | – | 6.4e-07
[4], x2 = 0.2562 | – | 1.04e-06
[4], x2 = 0.3512 | – | 1.284e-06
[4], x2 = 0.4324 | – | 1.449e-06
[4], x2 = 0.5057 | – | 1.538e-06
[4], x2 = 0.5143 | – | 1.548e-06
[4], x2 = 0.5756 | – | 1.565e-06
[4], x2 = 0.5814 | – | 1.562e-06
[4], x2 = 0.6778 | – | 1.503e-06
[4], x2 = 0.7269 | – | 1.41e-06
[4], x2 = 0.7898 | – | 1.273e-06
[4], x2 = 0.8421 | – | 1.081e-06
[4], x2 = 0.903 | – | 7.83e-07
[4], x2 = 0.9457 | – | 5.1e-07
[4], x2 = 0.9685 | – | 3.18e-07

CCCCCOC(C)=O [pentyl ethanoate] + CCCCCCC
Conditions | excess molar enthalpy [kcal/mol] | excess molar volume [m3/mol]
[3], x1 = 0.0544 | 0.0566 | –
[3], x1 = 0.1187 | 0.104 | –
[3], x1 = 0.1801 | 0.141 | –
[3], x1 = 0.2428 | 0.169 | –
[3], x1 = 0.3049 | 0.192 | –
[3], x1 = 0.3645 | 0.205 | –
[3], x1 = 0.4174 | 0.211 | –
[3], x1 = 0.468 | 0.212 | –
[3], x1 = 0.472 | 0.212 | –
[3], x1 = 0.5161 | 0.209 | –
[3], x1 = 0.5646 | 0.203 | –
[3], x1 = 0.6163 | 0.191 | –
[3], x1 = 0.6696 | 0.176 | –
[3], x1 = 0.7277 | 0.155 | –
[3], x1 = 0.7889 | 0.128 | –
[3], x1 = 0.8473 | 0.0966 | –
[3], x1 = 0.9078 | 0.0615 | –
[3], x1 = 0.9594 | 0.0278 | –
[4], x1 = 0.0546 | – | 1.29e-07
[4], x1 = 0.1048 | – | 2.14e-07
[4], x1 = 0.1515 | – | 2.65e-07
[4], x1 = 0.2014 | – | 3.07e-07
[4], x1 = 0.2488 | – | 3.45e-07
[4], x1 = 0.3009 | – | 3.81e-07
[4], x1 = 0.3474 | – | 3.99e-07
[4], x1 = 0.3999 | – | 4.11e-07
[4], x1 = 0.4426 | – | 4.09e-07
[4], x1 = 0.4977 | – | 3.97e-07
[4], x1 = 0.5503 | – | 3.72e-07
[4], x1 = 0.5881 | – | 3.55e-07
[4], x1 = 0.636 | – | 3.23e-07
[4], x1 = 0.7502 | – | 2.51e-07
[4], x1 = 0.8467 | – | 1.71e-07
[4], x1 = 0.9288 | – | 9.4e-08

CCCCCCCCCCCCC [tridecane] + CCCOC(C)=O
Conditions | excess molar enthalpy [kcal/mol] | excess molar volume [m3/mol]
[3], x2 = 0.087 | 0.103 | –
[3], x2 = 0.1659 | 0.187 | –
[3], x2 = 0.2413 | 0.26 | –
[3], x2 = 0.3093 | 0.312 | –
[3], x2 = 0.3709 | 0.349 | –
[3], x2 = 0.4257 | 0.372 | –
[3], x2 = 0.477 | 0.386 | –
[3], x2 = 0.5193 | 0.39 | –
[3], x2 = 0.5602 | 0.391 | –
[3], x2 = 0.6296 | 0.379 | –
[3], x2 = 0.6706 | 0.367 | –
[3], x2 = 0.716 | 0.346 | –
[3], x2 = 0.7628 | 0.317 | –
[3], x2 = 0.809 | 0.272 | –
[3], x2 = 0.8594 | 0.218 | –
[3], x2 = 0.9097 | 0.158 | –
[3], x2 = 0.9585 | 0.0781 | –
[4], x2 = 0.1139 | – | 4.77e-07
[4], x2 = 0.1844 | – | 7.09e-07
[4], x2 = 0.2748 | – | 9.32e-07
[4], x2 = 0.3425 | – | 1.072e-06
[4], x2 = 0.4123 | – | 1.16e-06
[4], x2 = 0.4772 | – | 1.205e-06
[4], x2 = 0.5337 | – | 1.232e-06
[4], x2 = 0.5864 | – | 1.216e-06
[4], x2 = 0.6311 | – | 1.183e-06
[4], x2 = 0.6791 | – | 1.139e-06
[4], x2 = 0.722 | – | 1.069e-06
[4], x2 = 0.7535 | – | 1.012e-06
[4], x2 = 0.7862 | – | 9.31e-07
[4], x2 = 0.8631 | – | 6.98e-07
[4], x2 = 0.9199 | – | 4.58e-07
[4], x2 = 0.9642 | – | 2.27e-07
